Experiments:
Experiment in all cases: relative viability (nuclei count vs DMSO), 5 days (fraction); higher = more cells survive
[1] = compound: Cc1cnc(CNC(=O)c2c(=O)c3ccc(N4CCCN(C)CC4)nc3n3c2sc2ccccc23)cn1 [CX-5461] + CC(=O)c1c(C)c2cnc(Nc3ccc(N4CCNCC4)cn3)nc2n(C2CCCC2)c1=O [Palbociclib] (partner 0.5 µM)
In short: (§1)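 Dosing by pin tool came one day after lung cancer cell lines were seeded in 1536-well plates, using either one drug or a fixed anchor-drug dose plus five library-drug doses (not always all listed) in √10 steps. After 5 days, nuclei were counted on 4× images. Relative viability is treated-well nuclei count divided by vehicle-well nuclei count, and values are medians of duplicate plates.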

[2] = compound: Cc1cnc(CNC(=O)c2c(=O)c3ccc(N4CCCN(C)CC4)nc3n3c2sc2ccccc23)cn1 [CX-5461] + C[C@@H](Oc1cc(-c2cnn(C3CCNCC3)c2)cnc1N)c1c(Cl)ccc(F)c1Cl [Crizotinib] (partner 1 µM)
In short: as §1

[3] = compound: O=C(Nc1cc(C(F)(F)F)cc(C(F)(F)F)c1)c1cc(Cl)ccc1O [IMD-0354] + O=C(CCCCCCC(=O)Nc1ccccc1)NO [Vorinostat] (partner 1 µM)
In short: as §1

[4] = compound: O=C(Nc1cc(C(F)(F)F)cc(C(F)(F)F)c1)c1cc(Cl)ccc1O [IMD-0354] + CC(C)C[C@H](NC(=O)[C@H](Cc1ccccc1)NC(=O)c1cnccn1)B(O)O [Bortezomib] (partner 0.002 µM)
In short: as §1

Row | Cell Line | relative viability ([1]; first compound 0.01 µM) | relative viability ([1]; first compound 0.03162 µM) | relative viability ([1]; first compound 0.1 µM) | relative viability ([1]; first compound 0.3162 µM) | relative viability ([1]; first compound 1 µM) | relative viability ([2]; first compound 0.01 µM) | relative viability ([2]; first compound 0.03162 µM) | relative viability ([2]; first compound 0.1 µM) | relative viability ([2]; first compound 0.3162 µM) | relative viability ([2]; first compound 1 µM) | relative viability ([3]; first compound 0.04 µM) | relative viability ([3]; first compound 0.1265 µM) | relative viability ([3]; first compound 0.4 µM) | relative viability ([3]; first compound 1.265 µM) | relative viability ([3]; first compound 4 µM) | relative viability ([4]; first compound 0.04 µM) | relative viability ([4]; first compound 0.1265 µM) | relative viability ([4]; first compound 0.4 µM) | relative viability ([4]; first compound 1.265 µM) | relative viability ([4]; first compound 4 µM)
1 | NCI-H2087 | 0.179 | 0.224 | 0.258 | 0.254 | 0.268 | 0.989 | 0.969 | 0.874 | 0.813 | 0.593 | 0.806 | 0.837 | 0.2 | 0.0721 | 0.0731 | 1.06 | 1 | 0.272 | 0.145 | 0.151
2 | NCI-H2126 | 0.351 | 0.351 | 0.358 | 0.351 | 0.365 | 1.05 | 1.11 | 1.08 | 1.07 | 0.975 | 0.762 | 0.826 | 0.692 | 0.382 | 0.289 | 1.17 | 1.12 | 0.89 | 0.744 | 0.425
3 | NCI-H2228 | 0.709 | 0.612 | 0.563 | 0.73 | 0.115 | 0.445 | 0.602 | 0.511 | 0.482 | 0.204 | 0.439 | 0.542 | 0.434 | 0.425 | 0.247 | 0.946 | 0.848 | 0.653 | 0.362 | 0.258
4 | NCI-H2347 | 0.424 | 0.437 | 0.427 | 0.407 | 0.404 | 0.446 | 0.696 | 0.674 | 0.687 | 0.523 | 0.636 | 0.629 | 0.512 | 0.315 | 0.382 | 0.741 | 1.02 | 0.748 | 0.606 | 0.533
5 | NCI-H2405 | 0.515 | 0.549 | 0.547 | 0.503 | 0.45 | 0.827 | 0.949 | 0.843 | 0.549 | 0.821 | 1.24 | 0.984 | 0.706 | 0.306 | 0.335 | 1.04 | 1.04 | 0.732 | 0.498 | 0.302
6 | NCI-H3122 | 0.192 | 0.191 | 0.175 | 0.169 | 0.186 | 0.299 | 0.267 | 0.284 | 0.255 | 0.282 | 1.04 | 0.936 | 0.622 | 0.3 | 0.132 | 0.975 | 1.06 | 0.927 | 0.231 | 0.172
7 | PC-3 [JPC-3] | 0.517 |  | 0.533 | 0.543 | 0.512 | 0.987 | 0.996 | 0.969 | 0.952 | 0.926 | 0.869 | 0.813 | 0.769 | 0.296 | 0.412 | 0.928 | 0.912 | 0.534 | 0.636 | 0.312
8 | PC-14 | 0.467 | 0.466 | 0.239 | 0.492 | 0.0872 | 1.02 | 1.05 | 0.957 | 0.863 | 0.91 | 0.83 | 0.751 | 0.564 | 0.234 | 0.119 | 1.12 | 0.802 | 0.354 | 0.443 | 0.114
9 | RERF-LC-KJ | 1.03 | 1.16 | 0.713 | 0.956 | 0.742 | 0.807 | 0.562 | 0.833 | 0.774 | 0.778 | 0.775 | 0.677 | 0.542 | 0.167 | 0.172 | 1.15 | 1.17 | 0.875 | 0.489 | 0.254
10 | SK-LU-1 | 0.412 | 0.407 | 0.376 | 0.388 | 0.358 | 0.95 | 1.01 | 0.837 | 0.891 | 0.51 | 0.796 | 0.597 | 0.623 | 0.194 | 0.264 | 1.17 | 1.1 | 0.645 | 0.418 | 0.304
11 | SW 1573 | 0.343 | 0.388 | 0.125 | 0.371 | 0.109 | 0.806 | 0.817 | 0.889 | 0.633 | 0.657 | 1.08 | 0.676 | 0.429 | 0.158 | 0.0883 | 1.38 | 0.96 | 0.479 | 0.563 | 0.132

From the supplement of paper PMC10307832
